{"source": "patent US9993516B2", "about": "“Treatment of left ventricular non-compaction and dilated cardiomyopathy by inhibiting melanocortin receptor four” (THE BRIGHAM AND WOMEN'S HOSPITAL, INC., priority 2013, dated 2018)", "key": {"[1]": {"test_system": "PRDM16 morphant knockdown embryos and truncation mutant (p.K702X) transgenics", "experiment": "Cardiac function (cardiac output) by video microscopy in PRDM16 morphant and truncation mutant zebrafish embryos, rescue experiments", "assay_type": "in vivo", "details": "for rescue of reduced cardiac output (contractile impairment): injected into yolk sac at one-cell stage, MCL0020, HS014, SU9119 1 μM, JKC363 2 μM, HS024 200 nM, THIQ 1 μM and 500 μM", "description": "Morpholinos directed against the translation start codon were 5'-[…] NO: 7) for prdm16 (Gene Tools (Philomath, Oreg.)) and were injected at the one cell stage. Concentrations of 0.2 mM were used. For cardiac-specific overexpression experiments the human PRDM16 truncation mutation ([…]) and the human PRDM16 wildtype were cloned downstream of the cmlc2 promoter into the Tol2kit expression system using Gateway technology (Invitrogen). PRDM16 constructs (15 ng/μl) were co-injected with 10 ng/μl capped Tol2 transposase mRNA into one-cell-stage zebrafish embryos."}, "[2]": {"test_system": "healthy wildtype zebrafish embryos", "protocol": "MC4 receptor antagonists and agonists were dissolved in 100% DMSO to a stock concentration of 1 mM. Working solutions were diluted in nuclease free water. The concentrations for MCL0020, HS014, SU9119 were 1 μM, for JKC363 2 μM, HS024 200 nM and for the MC4 receptor agonist THIQ 1 μM and 500 μM.\n(§1) Working solutions of 10 nM, 100 nM or 1 μM were diluted in 20 ml E3 water and zebrafish embryos were incubated directly after birth. Cardiac function was assessed at 48 hpf as described below.\nFor analysis of cardiac function embryos were laterally positioned and allowed to acclimate at 24° C. Video microscopy was performed on an Axioplan (Zeiss) upright microscope with a FastCam-PCI high-Speed digital camera (Photron) on top. 1088 frames were digitally captured at identical frame rates (250 frames per second) and magnification (5×). Sequential images were analyzed for heart rate and cardiac output using IMAGEJ and Excel. Experiments were repeated at least 3 times on each occasion using 10 animals."}, "[3]": {"test_system": "PRDM16 mutant model as well as wildtype fish", "experiment": "Tail necrosis on norepinephrine incubation of zebrafish embryos", "assay_type": "in vivo", "details": "high doses of norepinephrine", "protocol": "as §1"}, "[4]": {"test_system": "PRDM16 morphant and truncation mutant hearts", "experiment": "Cardiomyocyte proliferation (PCNA staining) in isolated hearts of PRDM16 morphant/mutant zebrafish", "assay_type": "in vivo", "details": "hearts at 48 hpf", "description": "For proliferation detection hearts from 48 hpf old zebrafish embryos were isolated and fixed in Prefer fixative (Anatech). The fixed hearts were stained with the primary antibodies rabbit anti-PCNA 1:200 (Abcam) and mouse anti-MF20 1:100 (DSHB), and the secondary antibodies donkey or goat anti-rabbit or mouse Alexa 488 or 546 conjugated (Invitrogen) 1:1,000. Hearts were mounted with ProLong Antifade reagent with DAPI mounting medium on a slide. Confocal images were analyzed using IMAGEJ."}, "[5]": {"test_system": "PRDM16 mutants", "experiment": "Apoptosis (TUNEL assay) in isolated hearts of PRDM16 mutant zebrafish", "assay_type": "in vivo", "details": "hearts at 48 hpf", "description": "For detection of apoptosis hearts from 48 hpf old zebrafish embryos were isolated and fixed in 4% PFA/PBS for 30 min and washed twice in PBS-T for 30 min. TUNEL assay was performed by using the in situ cell detection kit from Roche. Hearts were mounted with ProLong Antifade reagent with DAPI on a slide and confocal images were analyzed using IMAGEJ."}, "[6]": {"test_system": "PRDM16 morphant and mutant hearts", "experiment": "Intercellular coupling / conduction velocity by optical mapping of isolated zebrafish embryo hearts", "assay_type": "in vivo", "description": "Intercellular coupling parameters in zebrafish embryo hearts were measured using previously reported techniques. Briefly, hearts were isolated from zebrafish embryos, stained with the transmembrane-potential-sensitive dye di-8-ANEPPS (Invitrogen) and placed into a perfusion chamber that was mounted onto the stage of an inverted microscope. Excitation light from a high-intensity Hg arc lamp was transmitted through a 525/50-nm bandpass filter and reflected onto the preparation via a 565-nm dichroic mirror. Fluorescence emission was filtered by a 685/80-nm bandpass filter and recorded at a rate of 2000 s^-1 by a high-speed CCD camera (CardioCCD-[…]). Single-pixel action potentials were extracted from the fluorescence data and conduction velocities were estimated using an established algorithm. Experiments were repeated at least 2 times with 5 animals. Immunofluorescence, Detection of Apotosis and Mitochondrial Assessment"}}, "data": [{"compound": "O=C(N[C@H](Cc1ccc(Cl)cc1)C(=O)N1CCC(Cn2cncn2)(C2CCCCC2)CC1)[C@H]1Cc2ccccc2CN1", "note": "[THIQ]", "values": [{"measurement": "rescue of reduced cardiac output (contractile impairment)", "setting": "[1]", "result": "not able to rescue"}, {"measurement": "cardiac output in wildtype embryos", "setting": "[2]; THIQ 1 μM and 500 μM", "result": "decreases cardiac output"}, {"measurement": "heart rate", "setting": "[2]; THIQ, FIGS. 8A and 8B, fish group not given", "result": "not altered"}]}, {"compound": "NC[C@H](O)c1ccc(O)c(O)c1", "note": "[norepinephrine]", "values": [{"measurement": "rescue of contractile dysfunction", "setting": "[1]; PRDM16 mutant model, norepinephrine doses of 10 nM up to 1 μM, incubation in E3 water, 48 hpf", "result": "able to rescue"}, {"measurement": "necrosis of the tail", "setting": "[3]", "result": "necrosis of the tail"}]}, {"compound": "HS024", "values": [{"measurement": "rescue of reduced cardiac output (contractile impairment)", "setting": "[1]", "result": "efficiently rescued"}, {"measurement": "decreased cardiomyocyte proliferation (percentage of PCNA positive cells)", "setting": "[4]", "result": "prevented or reduced"}, {"measurement": "increased apoptosis", "setting": "[5]", "result": "restored"}, {"measurement": "disrupted coupling of cells (reduction in impulse propagation velocities)", "setting": "[6]", "result": "rescued"}]}]}
